Results on four compounds are retold here after patent publication US20140057977A1, “Induction of Arteriogenesis” (G. Pohl-Boskamp GmbH & Co. KG, priority 2012, published 2014).

What all share (assay type): in vivo
For assay [1], the system named is rat heart. Briefly: ST segment elevation (ECG) during final permanent LAD occlusion (FPO), rat repetitive ischemia protocol (RIP) arteriogenesis model.
Assay [2] deals with rat heart. Nature of the assay: Ventricular arrhythmias during FPO, Lown classification and VPB score.
Assay [3] concerns rat heart. Nature of the assay: Infarct size by TTC staining after 90 minutes of LAD occlusion. Particulars: for Infarct size: 90 min LAD occlusion, percentage of the area of the left ventricle.

Where “and” joins values, the source holds several entries; their conditions need not be identical. Identical values can stand only once. Entries after “also recorded” stand apart in the source; their conditions may differ.

`O=[N+]([O-])OCC(CO[N+](=O)[O-])O[N+](=O)[O-]` [NTG, nitroglycerin]: the “ST segment elevation compared to controls (in words)” value with rat heart [1] (rat, in vivo) was “lower ST segment elevation course; also recorded: significantly decreased; also recorded: significantly attenuated ST elevation”. Further, in the assay on rat heart [2] (rat, in vivo), the VPB-Score was 5.77 and 3.60; the “arrhythmias / VPB-Score compared to controls (in words)” value is “more often scaled into grade 0; also recorded: reduced arrhythmias; also recorded: decreased serious arrhythmias”; the “rats with class 0 arrhythmias” value amounted to 57.1%; the “rats with class IIIa arrhythmias” value is on record as 14.3%. The “rats with class IVb arrhythmias” value with rat heart [2] (rat, in vivo) was 85.7% and 42.9%. In the assay with rat heart [3] (rat, in vivo), the “decrease of infarct volume compared to the control group” value is listed as “more than 50%” and the “infarct size compared to controls (in words)” value is “significantly smaller infarct area; also recorded: decreases the size of an experimentally induced myocardial infarct”.
In the case of `O=[N+]([O-])O[C@H]1CO[C@H]2[C@@H]1OC[C@H]2O[N+](=O)[O-]` [ISDN, isosorbide dinitrate], the “ST segment elevation compared to controls (in words)” value in the assay with rat heart [1] (rat, in vivo) is given as “lower ST segment elevation course; also recorded: decreased compared to the PBS group but there is no significance; also recorded: non-significantly decreased; also recorded: decreases in ST elevation”. Also, the “arrhythmias / VPB-Score compared to controls (in words)” value with rat heart [2] (rat, in vivo) is “less arrhythmias”. Also, the “infarct size compared to controls (in words)” value with rat heart [3] (rat, in vivo) is reported as “smaller compared to controls (treated with PBS or ISDN-Placebo), but there is no significance; also recorded: smaller; also recorded: reduced infarct volumes”.
Compound `CC(=O)Oc1ccccc1C(=O)O` [ASA+NTG-PLACEBO, acetyl salicylic acid] gave an ST segment elevation with rat heart [1] (5 DAYS RIP, after FPO) of 0.144±0.091 mV. Besides, in the assay on rat heart [2] (5 DAYS RIP, during FPO), the “rats with class IIIa arrhythmias” value is reported as 16.7% and the “rats with class IVb arrhythmias” value is 83.3%. Further, the VPB-Score with rat heart [2] (RIP (Modules 2-4)) came to 5.50. Moreover, the Infarct size in the assay with rat heart [3] (5 DAYS RIP) is 13.92±1.71%. Besides, in the assay on rat heart [3] (5 DAYS RIP, listed as NTG-PLACEBO+ASS), the Infarct size was found to be 13.92±1.71%.
Take `CC(=O)Oc1ccccc1C(=O)O` [ASA+PBS, acetyl salicylic acid]: in the assay with rat heart [1] (5 DAYS RIP, after FPO), the “ST segment elevation compared to controls (in words)” value is “higher compared to the PBS control group, but there is no significance”. For the same compound, the “arrhythmias / VPB-Score compared to controls (in words)” value in the assay with rat heart [2] (5 DAYS RIP, during FPO) is “higher compared to the controls”. The compound also returned an Infarct size in the assay on rat heart [3] (5 DAYS RIP) of 12.51±3.05%. For the same compound, the “infarct size compared to controls (in words)” value with rat heart [3] (5 DAYS RIP, listed as ASA) is given as “increase of infarct volumes”; in the assay on rat heart [3] (5 DAYS RIP, listed as ASS+PBS), “minimally increased”.
